Test [1] deals with IL-23-stimulated phosphorylated STAT3 in peripheral blood mononuclear cells (PBMCs). Briefly: PBMC pSTAT3 Assay. As to conditions: PBMCs from healthy donors; 30 min preincubation with peptide; IL-23 5 ng/mL for 30 min; phospho-STAT3 by MSD. The class given is cell-based. An outline of the steps: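 Healthy-donor PBMCs expanded 4 days on anti-CD3 with 100 ng/mL IL-1β, starved ~4 h in RPMI-0.1% BSA, preincubated 30 min with peptide, then stimulated 30 min at 37 °C with 5 ng/mL IL-23. Lysate pSTAT3 measured by MSD phospho-STAT panel; IC50 derived.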

The target of test [2] is T1, IL-23R (Homo sapiens, UniProt Q5VWK5).
T1 construct: HEK293 cells containing IL-23R, IL-12Rβ1 and a firefly luciferase reporter gene driven by a STAT-inducible promoter (Promega); host or cells: HEK293
T1 sequence (Q5VWK5 24-629): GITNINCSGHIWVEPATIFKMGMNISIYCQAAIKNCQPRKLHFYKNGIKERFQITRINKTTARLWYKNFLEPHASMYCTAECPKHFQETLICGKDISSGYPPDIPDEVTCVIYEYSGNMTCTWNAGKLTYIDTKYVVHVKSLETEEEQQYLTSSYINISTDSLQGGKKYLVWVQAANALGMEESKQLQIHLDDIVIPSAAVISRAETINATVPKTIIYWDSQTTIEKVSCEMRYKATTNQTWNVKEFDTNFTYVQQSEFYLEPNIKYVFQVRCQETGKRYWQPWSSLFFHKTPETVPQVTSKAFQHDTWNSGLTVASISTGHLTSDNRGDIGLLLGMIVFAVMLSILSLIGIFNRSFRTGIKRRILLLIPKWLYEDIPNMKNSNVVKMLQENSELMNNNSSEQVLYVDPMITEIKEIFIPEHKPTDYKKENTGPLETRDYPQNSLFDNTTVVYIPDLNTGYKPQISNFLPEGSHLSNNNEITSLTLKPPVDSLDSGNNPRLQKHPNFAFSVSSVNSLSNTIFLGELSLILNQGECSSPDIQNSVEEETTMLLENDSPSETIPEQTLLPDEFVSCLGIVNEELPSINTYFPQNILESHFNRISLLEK
Briefly: IL23R Reporter Assay. As to conditions: HEK293 cells containing IL-23R, IL-12Rβ1 and STAT-inducible firefly luciferase reporter; 10 ng/mL IL-23 (EC90); 5 h. The class given is cell-based. The essentials: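 HEK293 cells carrying IL-23R, IL-12Rβ1 and a STAT-driven firefly luciferase reporter (4000 cells/well) received compound, then 10 ng/mL IL-23 solution (EC90), and were incubated for 5 h at 37° C. BioGlo luminescence was normalised to IL-23 alone (0%) and 30 μM control inhibitor (100%). IC50 came from a 4-parameter Hill fit.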
Background: Reporter assays use an easily measured gene product as a stand-in for the process of interest.

Molecules are shown by their SMILES. pIC50: −log10 of the molar value. *1 amine or outer side, *2 acyl side, *3 side chain or, on linkers, in order; H or OH if unused. Where a SMILES comes first, the peptide text is derived from it. Bridges are numbered along the chain shown (N, C = ends). Side-chain parts run from the residue outwards. [ ]: non-standard residue; d: D form. The star is where a group is joined. ξ: configuration not given here. PEG12 = NCCOCCOCCOCCOCCOCCOCCOCCOCCOCCOCCOCCOCCC(=O)O; Trp(7-Me) = Cc1cccc2c(C[C@H](N)C(=O)O)c[nH]c12; C20 diacid = O=C(O)CCCCCCCCCCCCCCCCCCC(=O)*; d(γGlu) = O=C(O)[C@@H](CCC(=O)[*:2])N[*:1]; C18 diacid = O=C(O)CCCCCCCCCCCCCCCCC(=O)*; X40 = C=C(/C=N\C)C[C@H](N[*:1])C(=O)[*:2]; γGlu = O=C(O)[C@H](CCC(=O)[*:2])N[*:1]; 2Nal = N[C@@H](Cc1ccc2ccccc2c1)C(=O)O; AEF = NCCOc1ccc(C[C@H](N)C(=O)O)cc1; X2 = C[N+](C)(C)C[C@@H](CC(=O)O)N*; 3Pal = N[C@@H](Cc1cccnc1)C(=O)O; NMeK = CN[C@@H](CCCCN)C(=O)O; Pen = CC(C)(S)[C@H](N)C(=O)O; Suc = O=C(CCC(=O)[*:2])[*:1]; Thp = NC1(C(=O)O)CCOCC1; AEEA = NCCOCCOCC(=O)O; ξK = NCCCCC(N)C(=O)O; Sar = CNCC(=O)O

What is called pIC50 is the IC50 on a negative log10 scale, so that one unit is a factor of ten. Read a high pIC50 as a small IC50.

For `C=C(/C=N\C)C[C@H](NC(=O)[C@H](CC(N)=O)NC(=O)[C@H](CCC(=O)O)NC(=O)C1(NC(=O)[C@H](Cc2ccc3ccccc3c2)NC(=O)[C@H](Cc2ccc(OCCN)cc2)NC(=O)[C@H]2NC(=O)[C@H](CCCCNC(C)=O)NC(=O)[C@H](Cc3c[nH]c4c(C)cccc34)NC(=O)[C@H]([C@@H](C)O)NC(=O)[C@H](CC(N)=O)NC(=O)[C@@H](NC(=O)[C@@H](CCCCNC(=O)CCOCCOCCOCCOCCOCCOCCOCCOCCOCCOCCOCCOCCNC(=O)CC[C@H](NC(=O)CCCCCCCCCCCCCCCCCCC(=O)O)C(=O)O)NC(C)=O)C(C)(C)SSC2(C)C)CCOCC1)C(=O)N(C)CC(N)=O` [compound 26, MeCO-k(PEG12gEC20OH)-Pen(3)-N-T-7MeW-K(Ac)-Pen(3)-AEF-2Nal-THP-E-N-3Pya-Sar-CONH2] (Ac-[dK]([PEG12-γGlu-C20 diacid])[Pen]NT[Trp(7-Me)]K(Ac)[Pen][AEF][2Nal][Thp]EN[X40][Sar]-NH2; disulfide 2-7), the negative logarithm of the IC50 (pIC50) in test [1] is greater than 9.30; in test [2], greater than 7.30.

With `CC(=O)NCCCC[C@@H]1NC(=O)[C@H](Cc2c[nH]c3c(C)cccc23)NC(=O)[C@H]([C@@H](C)O)NC(=O)[C@H](CC(N)=O)NC(=O)[C@@H](NC(C)=O)C(C)(C)SSC(C)(C)[C@@H](C(=O)N[C@@H](Cc2ccc(OCCN)cc2)C(=O)N[C@@H](Cc2ccc3ccccc3c2)C(=O)NC2(C(=O)N[C@@H](CCC(=O)O)C(=O)N[C@@H](CC(N)=O)C(=O)N[C@@H](Cc3cccnc3)C(=O)N(C)CC(=O)N[C@@H](CCCCNC(=O)COCCOCCNC(=O)COCCOCCNC(=O)CC[C@H](NC(=O)CCCCCCCCCCCCCCCCC(=O)O)C(=O)O)C(N)=O)CCOCC2)NC1=O` [compound 27, MeCO-Pen(3)-N-T-7MeW-K(Ac)-Pen(3)-AEF-2Nal-THP-E-N-3Pya-Sar-K(PEG2PEG2gEC18OH)-CONH2], the results for the pIC50 in test [1] and in test [2] were greater than 9.30 and greater than 7.30, respectively.

For the molecule `CC(=O)NCCCC[C@@H]1NC(=O)[C@H](Cc2c[nH]c3c(C)cccc23)NC(=O)[C@H]([C@@H](C)O)NC(=O)[C@H](CC(N)=O)NC(=O)[C@@H](NC(C)=O)C(C)(C)SSC(C)(C)[C@@H](C(=O)N[C@@H](Cc2ccc(OCCN)cc2)C(=O)N[C@@H](Cc2ccc3ccccc3c2)C(=O)NC2(C(=O)N[C@@H](CCCCNC(=O)CCC(=O)N[C@H](CC(=O)O)C[N+](C)(C)C)C(=O)N[C@@H](CC(N)=O)C(=O)N[C@@H](Cc3cccnc3)C(=O)N(C)[C@@H](CCCCNC(=O)COCCOCCNC(=O)COCCOCCNC(=O)CC[C@H](NC(=O)CCCCCCCCCCCCCCCCC(=O)O)C(=O)O)C(N)=O)CCOCC2)NC1=O` [compound 28, MeCO-Pen(3)-N-T-7MeW-K(Ac)-Pen(3)-AEF-2Nal-THP-K(d)-N-3Pya-NMeK(PEG2PEG2gEC18OH)-CONH2], the negative-log IC50 (pIC50) is greater than 9.30 in test [1] and 6.30 to 7.30 in test [2].

As to `CC(=O)NCCCC[C@@H]1NC(=O)[C@H](Cc2c[nH]c3c(C)cccc23)NC(=O)[C@H]([C@@H](C)O)NC(=O)[C@H](CCCCNC(=O)CCC(=O)N[C@H](CC(=O)O)C[N+](C)(C)C)NC(=O)[C@@H](NC(=O)[C@H](CCCNC(=N)N)NC(C)=O)C(C)(C)SSC(C)(C)[C@@H](C(=O)N[C@@H](Cc2ccc(OCCN)cc2)C(=O)N[C@@H](Cc2ccc3ccccc3c2)C(=O)NC2(C(=O)N[C@@H](CCC(=O)O)C(=O)N[C@@H](CC(N)=O)C(=O)N[C@@H](Cc3cccnc3)C(=O)N(C)[C@@H](CCCCNC(=O)COCCOCCNC(=O)COCCOCCNC(=O)CC[C@H](NC(=O)CCCCCCCCCCCCCCCCC(=O)O)C(=O)O)C(N)=O)CCOCC2)NC1=O` [compound 30, MeCO-r-Pen(3)-K(d)-T-7MeW-K(Ac)-Pen(3)-AEF-2Nal-THP-E-N-3Pya-NMeK(PEG2PEG2gEC18OH)-CONH2] (Ac-R[Pen]K([Suc-X2])T[Trp(7-Me)]K(Ac)[Pen][AEF][2Nal][Thp]EN[3Pal][NMeK]([AEEA-AEEA-γGlu-C18 diacid])-NH2; disulfide 2-7), the figures for the pIC50 in test [1] and in test [2] were greater than 9.30 and greater than 7.30, respectively.

With `CC(=O)NCCCC[C@@H]1NC(=O)[C@H](Cc2c[nH]c3c(C)cccc23)NC(=O)[C@H]([C@@H](C)O)NC(=O)[C@H](CC(N)=O)NC(=O)[C@@H](NC(=O)[C@@H](CCCNC(=N)N)NC(=O)CCC(=O)N[C@H](CC(=O)O)C[N+](C)(C)C)C(C)(C)SSC(C)(C)[C@@H](C(=O)N[C@@H](Cc2ccc(OCCN)cc2)C(=O)N[C@@H](Cc2ccc3ccccc3c2)C(=O)NC2(C(=O)N[C@@H](CCC(=O)O)C(=O)N[C@@H](CC(N)=O)C(=O)N[C@@H](Cc3cccnc3)C(=O)N(C)[C@@H](CCCCNC(=O)COCCOCCNC(=O)COCCOCCNC(=O)CC[C@H](NC(=O)CCCCCCCCCCCCCCCCC(=O)O)C(=O)O)C(N)=O)CCOCC2)NC1=O` [compound 31, succiniccarn-r-Pen(3)-N-T-7MeW-K(Ac)-Pen(3)-AEF-2Nal-THP-E-N-3Pya-NMeK(PEG2PEG2gEC18OH)-CONH2] ({X2-Suc}-[dR][Pen]NT[Trp(7-Me)]K(Ac)[Pen][AEF][2Nal][Thp]EN[3Pal][NMeK]([AEEA-AEEA-γGlu-C18 diacid])-NH2; disulfide 2-7), the pIC50 in test [1] was greater than 9.30; in test [2], 6.30 to 7.30.

As to `CC(=O)NCCCC[C@@H]1NC(=O)[C@H](Cc2c[nH]c3c(C)cccc23)NC(=O)[C@H]([C@@H](C)O)NC(=O)[C@H](CC(N)=O)NC(=O)[C@@H](NC(=O)[C@H](CCCCNC(=O)COCCOCCNC(=O)COCCOCCNC(=O)CC[C@H](NC(=O)CCCCCCCCCCCCCCCCC(=O)O)C(=O)O)CCCNC(=N)N)C(C)(C)SSC(C)(C)[C@@H](C(=O)N[C@@H](Cc2ccc(OCCN)cc2)C(=O)N[C@@H](Cc2ccc3ccccc3c2)C(=O)NC2(C(=O)N[C@@H](CCCCNC(=O)CCC(=O)N[C@H](CC(=O)O)C[N+](C)(C)C)C(=O)N[C@@H](CC(N)=O)C(=O)N[C@@H](Cc3cccnc3)C(=O)N(C)CC(N)=O)CCOCC2)NC1=O` [compound 32, HOC18gEPEG2PEG2CO-r-Pen(3)-N-T-7MeW-K(Ac)-Pen(3)-AEF(d)-2Nal-THP-E-N-3Pya-Sar-CONH2], the pIC50 in test [1] is greater than 9.30; in test [2], 6.30 to 7.30.

With `CC(=O)NCCCC[C@@H]1NC(=O)[C@H](Cc2c[nH]c3c(C)cccc23)NC(=O)[C@H]([C@@H](C)O)NC(=O)[C@H](CC(N)=O)NC(=O)[C@@H](NC(=O)[C@@H](CCCCNC(=O)COCCOCCNC(=O)COCCOCCNC(=O)CC[C@H](NC(=O)CCCCCCCCCCCCCCCCC(=O)O)C(=O)O)NC(C)=O)C(C)(C)SSC(C)(C)[C@@H](C(=O)N[C@@H](Cc2ccc(OCCN)cc2)C(=O)N[C@@H](Cc2ccc3ccccc3c2)C(=O)NC2(C(=O)N[C@@H](CCCCNC(=O)CCC(=O)N[C@H](CC(=O)O)C[N+](C)(C)C)C(=O)N[C@@H](CC(N)=O)C(=O)N[C@@H](Cc3cccnc3)C(=O)N(C)CC(N)=O)CCOCC2)NC1=O` [compound 33, MeCO-k(PEG2PEG2gEC18OH)-Pen(3)-N-T-7MeW-K(Ac)-Pen(3)-AEF-2Nal-THP-K(d)-N-3Pya-Sar-CONH2] (Ac-[dK]([AEEA-AEEA-γGlu-C18 diacid])[Pen]NT[Trp(7-Me)]K(Ac)[Pen][AEF][2Nal][Thp]K([Suc-X2])N[3Pal][Sar]-NH2; disulfide 2-7), the results for the pIC50 in test [1] and in test [2] were greater than 9.30 and greater than 7.30, respectively.

On to `CC(=O)NC(CCCCNC(=O)COCCOCCNC(=O)COCCOCCNC(=O)CC[C@@H](NC(=O)CCCCCCCCCCCCCCCCC(=O)O)C(=O)O)C(=O)N[C@@H]1C(=O)N[C@@H](CC(N)=O)C(=O)N[C@@H]([C@@H](C)O)C(=O)N[C@@H](Cc2c[nH]c3c(C)cccc23)C(=O)N[C@@H](CCCCNC(=O)CCC(=O)N[C@H](CC(=O)O)C[N+](C)(C)C)C(=O)N[C@H](C(=O)N[C@@H](Cc2ccc(OCCN)cc2)C(=O)N[C@@H](Cc2ccc3ccccc3c2)C(=O)NC2(C(=O)N[C@@H](CCC(=O)O)C(=O)N[C@@H](CC(N)=O)C(=O)N[C@@H](Cc3cccnc3)C(=O)N(C)CC(N)=O)CCOCC2)C(C)(C)SSC1(C)C` (stereo partly drawn) [compound 34, MeCO-k(PEG2PEG2gEC18OH)-Pen(3)-N-T-7MeW-K(d)-Pen(3)-AEF-2Nal-THP-E-N-3Pya-Sar-CONH2] (Ac-[ξK]([AEEA-AEEA-d(γGlu)-C18 diacid])[Pen]NT[Trp(7-Me)]K([Suc-X2])[Pen][AEF][2Nal][Thp]EN[3Pal][Sar]-NH2; disulfide 2-7), for which the pIC50 in test [1] was greater than 9.30; in test [2] it was greater than 7.30.
